Five compounds from patent publication US7763658B2, “Treatment for cancers” (Synta Pharmaceuticals Corp., priority 2003, dated 2010) can be followed below.

“Also recorded” adds a separate entry of the source.

The subject of one data set is HL-60. The data set can be described thus: Tumor cell growth inhibition, MTS assay, HL-60. It counts as cell-based. The settings on record: Homo sapiens, 72 hours incubation. The procedure: (§1) The in vitro activity of the compounds was assessed in a selected set of human cancer cell lines. Three pairs of tumor cell lines (non-resistant/resistant) were used to identify novel potent antitumor compounds which are capable of overcoming multi-drug resistance.
(§2) HL-60, a model of myeloid leukemia, was obtained from ATCC (ATCC CCL-240); and HL60/TX1000 was isolated in vitro by subculturing HL-60 in progressively higher concentration of paclitaxel. HL-60/TX1000 cells over-express mdr-1 mRNA and p-glycoprotein (PCP), as determined by western blot and immunofluorescence labeling with antiPGP antibodies. The cells are cross-resistant to paclitaxel, Vincristine, Adriamycin, Etoposide and Doxorubicin.
(§3) All experiments were performed on exponentially growing cell culture. Cell densities were 2.5×10^4 cells/ml in all experiment except special.

The test system of a further data set is CEM (T-cell leukemia). The data set can be described thus: cells. Type of data set: cell-based. The settings on record: Homo sapiens, 72 h, read-out: In vitro Cytotoxicity IC50, CEM. The method, then:
(§4) All experiments were performed on exponentially growing cell culture.

Data set [1] deals with MDR cell lines (MES-SA/DX5, HL-60/TX1000, Bowes/OV2). Put plainly: Tumor cell growth inhibition, summary over MDR cell lines. It counts as cell-based, human. The following applies: for IC50: Homo sapiens, read-out: IC50 against the MDR cell lines. The procedure:
as §1, §2
(§5) MES-SA, a model of uterine sarcoma, is sensitive to a number of chemotherapeutic agents, including Doxorubicin, Dactinomycin, Mitomycin C, paclitaxel and Bleomycin, but resistant to Vinblastine and Cisplatin. MES-SA/DX5 was established in the presence of increasing concentrations of Doxorubicin. […] Both MES-SA and MES-SA/Dx5 were purchased from ATCC (ATCC CRL-1976 and ATCC CRL-1977, respectively).
(§6) Bowes is a melanoma cell line; and Bowes/OV2 is a Vincristine resistant Bowes melanoma cell line.
as §3

Another data set concerns MES-SA. Put plainly: Tumor cell growth inhibition, MTS assay, MES-SA. Type of data set: cell-based. The settings on record: Homo sapiens, 72 hours incubation. The method, then:
(§7) The in vitro activity of the compounds was assessed in a selected set of human cancer cell lines.
as §5, §3
Background: Tetrazolium assays rely on reduction of a dye to a coloured formazan, in cell work by metabolically active cells.

A further data set relates to Bowes. Put plainly: Tumor cell growth inhibition, MTS assay, Bowes. It counts as cell-based. The settings on record: Homo sapiens, 72 hours incubation. The procedure:
as §1, §6, §3

The subject of the next data set is 39SK normal fibroblast. The data set can be described thus: In vitro cytotoxicity, MTS assay, 39SK. Type of data set: cell-based. The following applies: Human normal fibroblast, 72 hours. The procedure:
as §4

The next data set has as its system MES-SA/DX5. Put plainly: Tumor cell growth inhibition, MTS assay, MES-SA/DX5. The following applies: protocol of Example 15, Table 2. It counts as cell-based, human. The method, then:
as §7, §5, §3

Data set [2] relates to multi-drug resistant human uterine sarcoma MES-SA/DX5 tumors. The data set can be described thus: MES-SA/DX5 tumors in nude mice. Type of data set: in vivo. The following applies: 15 mg/kg intravenously, 3 times a week for 3 weeks. The procedure:
A supplemented media was prepared from 50% DMEM/Dulbecco Modified Eagle Medium (High Glucose), 50% RPMI 1640, 10% FBS/Fetal Bovine Serum (Hybridoma Tested; Sterile Filtered), 1% L-Glutamine, 1% Penicillin-Streptomycin, 1% MEM Sodium Pyruvate and 1% MEM Non-Essential Amino Acids. FBS was obtained from Sigma Chemical Co. and other ingredients were obtained from Invitrogen Life Technologies, USA). The supplemental media was warmed to 37° C. and 50 ml of media was added to a 175 cm^2 tissue culture flask.
The cells used in the assay were multi-drug resistant MES-SA/DX-5 Human Uterine Sarcoma cells from the American Type Culture Collection. 1 vial of MES-SA/DX-5 cells from the liquid nitrogen frozen cell stock was removed. The frozen vial of cells was immediately placed into a 37° C. water bath and gently swirled until thawed. The freeze-vial was wiped with 70% ethanol and cells were immediately pipetted into the 175 cm^2 tissue culture flask containing supplemented media. […]
The flask was washed with 10 ml of sterile room temperature phosphate buffered saline (PBS). […] The supernatant was aspirated and the cell pellet was resuspended in 10 ml of supplemented media and the cells were counted. […]
The above procedure for trypsinizing and centrifuging the cells were followed. The supernatant was aspirated and the cell pellet was resuspended in 10 ml of sterile PBS and the cells were counted. […]

Data set [3] concerns normal cancer cell lines (MES-SA, HL-60, Bowes). The data set can be described thus: Tumor cell growth inhibition, summary over normal cancer cell lines. Type of data set: cell-based. The following applies: Homo sapiens, read-out: IC50 against normal cancer cell lines. The method, then: as §1, §2, §5, §6, §3

What is called IC50 is the concentration that inhibits the measured activity by half. `CC[C@]1(O)C[C@H]2CN(CCc3c([nH]c4ccccc34)[C@@](C(=O)OC)(c3cc4c(cc3OC)N(C=O)[C@H]3[C@@](O)(C(=O)OC)[C@H](OC(C)=O)[C@]5(CC)C=CCN6CC[C@]43[C@@H]65)C2)C1` [Vincristine]: the IC50 with HL-60 worked out at 0.002 µM; in the data set on CEM (T-cell leukemia) it was 5 nM; in data set [1], 5 µM; in the data set on MES-SA, 0.004 µM; in the data set with Bowes, 0.002 µM. Moreover, the “IC50 compared with Compound (1), same multi-drug resistant cell lines” value in [1] is “two to three orders of magnitude larger”.
In the data set on 39SK normal fibroblast, `CN(NC(=O)CC(=O)NN(C)C(=S)c1ccccc1)C(=S)c1ccccc1` [Compound (1)] displayed an IC50 greater than 10 µM.
`CC(C(=O)NN1Cc2ccccc2C1=S)C(=O)NN1Cc2ccccc2C1=S` [Compound (13)] yielded an IC50 in the data set with MES-SA/DX5 of 0.05 µM.
For `CCN(NC(=O)C(C)C(=O)NN(CC)C(=S)c1ccccc1)C(=S)c1ccccc1` [Compound (16)], the “toxicity such as body weight suppression and behavior changes” value in data set [2] is reported as “without any obvious toxicity”. In addition, the “tumor growth / tumor size of MES-SA/DX5 compared with vehicle” value in data set [2] (FIG. 2) was “significantly reduced; also recorded: significantly inhibits the tumor growth”. The compound further gave an IC50 with MES-SA/DX5 (Homo sapiens, MES-SA/Dx5) of 0.05 µM.
On to `CC(=O)O[C@H]1C(=O)[C@@]2(C)[C@H]([C@H](OC(=O)c3ccccc3)[C@]3(O)C[C@H](OC(=O)[C@H](O)[C@@H](NC(=O)c4ccccc4)c4ccccc4)C(C)=C1C3(C)C)[C@]1(OC(C)=O)CO[C@@H]1C[C@@H]2O` [Paclitaxel], for which the half-inhibitory concentration (IC50) in data set [3] was 2 to 5 nM; in the data set on HL-60 it was 0.002 µM; with CEM (T-cell leukemia) it was 10 nM; in [1] it was 5 µM; in the data set on MES-SA, 0.005 µM; in the data set with Bowes, 0.005 µM. The “IC50 compared with Compound (1), same multi-drug resistant cell lines” value in data set [1] is given as “two to three orders of magnitude larger”.
